In patent US10934355B2, “Methods and compositions for the prevention and treatment of surgical adhesions” (The Board of Trustees of the Leland Stanford Junior …, priority 2016, dated 2021):
Entries after “also recorded” stand apart in the source; their conditions may differ.

What was measured:
Type in all cases: in vivo, mouse
[1] = tested on: adhesion formation in wild type C57BL/6J mice; experiment: Adhesion induction (ischemic button) with HIF1A small molecule inhibitor treatment, adhesion scoring; details: for adhesion formation: C57BL/6J mice, cryptotanshinone 200 mg/kg, FM19G11 2 mg/kg, echinomycin 10 or 20 ug/kg, PX12 25 mg/kg, immediately after injury, 4 hours after, then every 24 hours for 7 days, scored after 7 days; for adhesion score in a majority of the treated mice: scale 0-5, PX12 n=5, echinomycin n=15, 7 days after induction
Text: (§1) Adhesion induction surgeries were done on wild type B6 (C57BL/6J (The Jackson Laboratory) mice aged 6-10 weeks. Mice were anesthetized by inhaled isoflurane until determined unconscious confirmed by toe-pinch test. The abdomen was disinfected with betadine and phosphate buffered saline (PBS). A left mid-clavicular incision was made in the skin running down the length of the mouse. A similar left-mid clavicular incision was made in the peritoneum running down the length of the peritoneum. The peritoneum was gently folded to the right and held down by a hemostat. A single, ischemic button was placed on the right half of the peritoneal wall by clamping a small (−5 mm diameter) piece of peritoneum and ligating the base with a 4-0 silk suture (Ethicon, 683G). Light abrasion on the button (24 times) and on the adjacent liver, cecum, and small and large bowels (7 times) was optionally performed (depending on the desired adhesion severity) with a surgical brush. Light brushing with fewer repetitions was performed to avoid pinpoint bleeding. The peritoneum was closed using 4-0 silk sutures and the skin was stapled closed (EZ Clips, 9 mm, Braintree Scientific Inc). Mice were allowed to recover on a heating pad and injected with 0.05-0.1 mg/kg of buprenorphine. Mice were followed closely and monitored daily for signs of morbidity for 7 days until euthanasia. Adhesed tissues were dissected, scored, and fixed in 2% paraformaldehyde overnight at 4 degrees.
In functional studies we assign a single score for an adhesion, based on the criteria detailed in the text above, taking into consideration both surface area contact and molecular makeup. […] We have observed adhesion areas with high surface area contact (a score of 3 or 4) with little or no collagen or macrophage involvement (F4/80-). Conversely, we have also observed adhesion areas with low surface area contact (a score of 2) with high collagen and macrophage infiltration. In these cases we will score adhesions based on surface area contact or number of organs involved, as we predict this is a more significant indicator of clinical outcome.
Adhesion induction surgeries were performed on 4-8 week old wild type B6 (C57BL/6J (The Jackson Laboratory) as previously described. 200 mg/kg of cryptotanshinone (Sigma Aldrich), 2 mg/kg of FM19G11 (Sigma Aldrich), 10 ug/kg or 20 ug/kg of echinomycin (Sigma Aldrich), or 25 mg/kg of PX12 (Sigma Aldrich) immediately after injury, 4 hours after injury, and every 24 hours subsequently for 7 days.
Adhesions were induced in wild type C57BL/6J mice using the method described above, with different intensity and scope of abrasions to induce a range of adhesion severity. These mice were allowed to recover for seven days before their adhesions were scored.
In our scheme, an adhesion with a score of 0 has no adhesion between two areas, with limited mesothelial thickening on the button (FIG. 3A). The area stains positive for MSLN and fibronectin (FIG. 3A). Mice with an adhesion score of 0 had no signs of morbidity and survived the 7 day recovery period (n=25). An adhesion score of 1 indicated a “string” adhesion, connecting the two adhesed areas with a light fibrous bridge (FIG. 3B). The string and surrounding areas were immunopositive for MSLN and fibronectin (FIG. 3B). Most mice with an adhesion score of 1 had no signs of morbidity and survived the 7 day recovery period (n=11).
All adhesions with scores of 2 or above involve a single direct contact between two tissues. […]

HIF1A = experiment: Immunofluorescence staining of mesothelium surrounding buttons after inhibitor treatment; details: 7 days after induction and treatment; control adhesions positive for PDPN, MSLN and HIF1A
Protocol: Immunofluorescence studies were performed on frozen sections. Frozen sections were thawed at room temperature for ten minutes and washed in PBS twice. Slides were blocked in 5% serum for 30 minutes at room temperature. Sections were subsequently stained with primary antibodies against PDPN (1:100, mouse monoclonal, Abcam), MSLN (1:200, rabbit monoclonal, ABBIOTEC), fibronectin (1:100, rabbit monoclonal, Abcam), F4/80 (1:100, rat monoclonal, Abcam), CD31 (1:100, rabbit monoclonal, Abcam), pan-collagen (1:100, rabbit polyclonal, Abcam), WT1 (1:100, rabbit polyclonal, Abcam), CD44 (1:100, rabbit polyclonal, Abcam), HIF1A (1:100, mouse monoclonal), and S100A4 (1:100, rabbit polyclonal, Abcam), overnight at 4 degrees, and washed three times in PBS. Slides were stained were incubated with secondary antibodies conjugated to Alex Fluor 488, 594, or 647 for one to two hours at room temperature. Stains were washed once with PBST and three times with PBS before nuclear staining with Hoechst 33342 (Life Technologies), for two minutes and mounted with Fluoromount G (Southern Biotech).
To explore whether inhibiting the HIF1A pathway in vivo can prevent adhesion formation, we treated mice that had undergone adhesion induction with small molecular inhibitors against HIF1A or its immediate downstream cascade. […] Mice were euthanized after 7 days and their adhesions were imaged and scored.

[2] = tested on: HIF1A and mesothelial target genes in injured mesothelial cells; experiment: RNA sequencing of sorted injured mesothelium after echinomycin treatment
Protocol: A modified adhesion induction surgery was done according to previously described procedures on wild type C57BL/6J (The Jackson Laboratory). Two ischemic buttons were placed on each side of the peritoneum and no abrasion of the button or abdominal organs was done. Mice were allowed to recover for 6, 12, or 24 hours and euthanized. Ischemic buttons were dissected by cutting the base and placed in dissociation media (DMEM (Life Technologies, 10565-042), 50 mg/ml collagenase IV (Worthington Biochemical), 20 uM CaCl2). Buttons were homogenized using a single edge blade (Razor Blade Company), and incubated in dissociation media for 30 minutes at 37 C. The subsequent cell suspension was filtered through a 100 um filter and spun and washed with 2% fetal bovine serum (FBS) in PBS. Cells were treated with 1 ml of ACK lysis buffer (Life Technologies) for 5 minutes at 4 C and spun and washed. Cells were blocked with 1% goat serum (Life Technologies) for 10 minutes and stained with anti-PDPN (BioLegend, 8.1.1, 1:100), anti-LYVE-1 (eBioscience, ALY-7, 1:100), anti-CD31 (eBioscience, 390, 1:100), and anti-CD45 (BioLegend, 30-F11, 1:100) for 30 minutes at 4 C. Cells were spun down, filtered, and resuspended in 200 µl of 2% FBS in PBS. Cells were run through a FACSAria (BD Bioscences) and PDPN+LYVE1-CD31-CD45- cells were sorted directly into 750 ul of Trizol LS (Life Technologies).
Total RNA from sorted mesothelial population was isolated using Trizol (ThermoFisher) as per manufacturer's recommendation and was facilitated by addition of linear polyacrylamide (Sigma) as a carrier during RNA precipitation. Purified total RNA was treated with 4 units of RQ1 RNase-free DNase (Promega) at 37° C. for 1 hour to remove trace amounts of genomic DNA. The DNase-treated total RNA was cleaned-up using RNeasy micro kit (QIAGEN). 10-50 ng of total RNA was used as input for cDNA preparation and amplification using Ovation RNA-Seq System V2 (NuGEN). Amplified cDNA was sheared using Covaris S2 (Covaris) using the following settings: total volume […], duty cycle 10%, intensity 5, cycle/burst 100, total time 2 min. The sheared cDNA was cleaned up using Agencourt Ampure XP (Beckman Coulter) to obtain cDNA fragments>=400 base pairs (bp). 500 ng of sheared and size-selected cDNA were used as input for library preparation using NEBNext Ultra DNA Library Prep Kit for Illumina (New England BioLabs) as per manufacturer's recommendations. Resulting libraries (fragment distribution: 300-700 bp; peak 500-550 bp) were sequenced using HiSeq 4000 (Illumina) to obtain 2×150 base pair paired-end reads. The reads obtained were trimmed for base call quality and the presence of adapter sequences using Skewer (ref). High quality reads thus obtained were aligned to mouse genome using OLego (ref) and the levels of expressed mRNAs were estimated using cuffdiff2 (ref) and represented as fragments per kilo-base per million mapped reads (FPKM).
To broadly determine the causative transcriptional changes in injured mesothelial cells downstream of HIF1A inhibition, we treated 10 wild type C57BL/6J mice with (20 ug/kg) of echinomycin prior to and immediately following adhesion induction via placement of four ischemic buttons. Using a similar method as outlined above, we isolated the damaged mesothelium from buttons, sorted and isolated their RNA for sequencing.

[3] = tested on: adhesion formation in mice; experiment: Adhesion induction with neutrophil/monocyte modulating treatments, adhesion score (Example 2); details: for adhesion formation (adhesion score), pre-treatment: treated 24 hours prior to adhesion induction
Text: as §1
Peritoneal washes from similar time points confirmed that increased numbers of neutrophils and macrophages enter the peritoneum.

adhesions in mice = experiment: Pre-treatment 3 days prior to adhesion induction surgery, adhesion severity scale 0-5 (Example 3); details: pre-treated 3 days prior to surgery, evaluated 7 days post injury, versus PBS control
Text: as §1, with “Light abrasion on the button (24 times) and on the adjacent liver, cecum, and small and large bowels (7 times) was optionally performed (depending on the desired adhesion severity) with a surgical brush. Light brushing with fewer repetitions was performed to avoid pinpoint bleeding. The peritoneum was closed using 4-0 silk sutures and the skin was stapled closed (EZ Clips, 9 mm, Braintree Scientific Inc). Mice were allowed to recover on a heating pad and injected with 0.05-0.1 mg/kg of buprenorphine.” left out
Mice were pre-treated with either PLGA, thioglycollate, or PBS control 3 days prior to adhesion induction surgery as described in Example 1. Mice were evaluated 7 days post injury and evaluated on an adhesion severity scale from 0-5 for adhesions forming on the suture site (S) or the button (B). […]

Cc1ccc(C(=O)COC(=O)c2cccc(NC(=O)c3ccc([N+](=O)[O-])cc3[N+](=O)[O-])c2)cc1 [FM19G11]
adhesion formation [1]: reduce adhesion formation

CCC(C)SSc1ncc[nH]1 (stereo not shown) [PX12]
adhesion formation [1]: significantly reduced; also recorded: dramatic decrease in adhesion formation and frequency; also recorded: significant decreases in adhesion formation; also recorded: reduce adhesion formation | adhesion score in a majority of the treated mice [1]: 0 | HIF1A immunofluorescence staining of mesothelium surrounding the buttons / adhesions (HIF1A): stained with only MSLN and PDPN

CS[C@H]1SC[C@H]2C(=O)N(C)[C@@H](C(C)C)C(=O)OC[C@@H](NC(=O)c3cnc4ccccc4n3)C(=O)N[C@@H](C)C(=O)N(C)[C@@H]1C(=O)N(C)[C@@H](C(C)C)C(=O)OC[C@@H](NC(=O)c1cnc3ccccc3n1)C(=O)N[C@@H](C)C(=O)N2C [echinomycin]
ITGAM, ITGB1, and ITGB2 gene expression after HIF1A inhibition ([2]; 20 ug/kg echinomycin): little difference in gene expression | PDPN, MSLN, and S100A4 expression after treatment ([2]; 20 ug/kg echinomycin): increased in expression | UPK1B and WT1 expression levels after treatment ([2]; 20 ug/kg echinomycin): dropped significantly | number of genes normally upregulated along the 24 hour time course that were decreased with HIF1A inhibition ([2]; 20 ug/kg echinomycin): over 200 genes | number of genes with little or decreased expression during the 24 hour time course that were upregulated by HIF1A inhibition ([2]; 20 ug/kg echinomycin): over 600 genes | expression of known HIF1A targets VEGFb and transferrin (TRF) ([2]; 20 ug/kg echinomycin prior to and immediately following adhesion induction): downregulated | adhesion formation [1]: significantly reduced; also recorded: dramatic decrease in adhesion formation and frequency; also recorded: significant decreases in adhesion formation; also recorded: significantly reduces the formation of adhesions | adhesion score in a majority of the treated mice [1]: 0 | HIF1A immunofluorescence staining of mesothelium surrounding the buttons / adhesions (HIF1A): stained with only MSLN and PDPN

Catalase
adhesion formation (adhesion score), pre-treatment [3]: worsens adhesion formation

MCP-1: monocyte chemoattractant protein-1, a known monocyte chemoattractant
side effects in animals ([3]; MCP-1 administration (e.g., intraperitoneally) in animal models): little or no side effects | adhesion formation (adhesion score), post-surgery treatment ([3]; treated for three days following adhesion induction surgery): diminish adhesion formation; also recorded: substantial reduction in adhesion grades

thioglycollate
adhesion formation (adhesion score), pre-treatment [3]: diminished adhesions | severity of adhesions at the button (B) (adhesions in mice): significantly reduced severity of adhesions | severity of adhesions at the suture site (S) (adhesions in mice): significantly reduced severity of adhesions
